17 compounds from patent US20260250289A1, “BICYCLIC HETEROCYCLES AND THEIR USE AS WRN INHIBITORS” (Novartis AG, priority 2022, published 2026) can be followed below.

The target in experiment [1] is T1, WRN helicase (aa N517-P1238) (Homo sapiens, UniProt Q14191).
T1 construct: The core helicase motif of the WRN protein (aa N517-P1238) was produced for this assay; His (N); ZZ (N); 3C protease cleavage site (N); made in house; host or cells: Sf21 insect cells (baculovirus; virus and BIICs made in SF9)
Nature of the experiment: WRN ATPase assay (DNA dependent ATP hydrolysis, ADP-Glo). It counts as biochemical. The conditions noted are these: 3 hours pre-incubation, 300 micromolar ATP, FLAP26 DNA; geometric mean of at least 2. The method, boiled down: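 DNA-dependent ATP hydrolysis detected as ADP by ADP-Glo luminescence, using 300 μM ATP, 0.2 nM FLAP26 substrate and 10 nM WRN aa N517-P1238 (Tris pH 7.5 buffer, 2 mM MgCl2, 50 mM NaCl). IC50s fitted from normalized duplicate half-log dilutions; reported as geometric means of at least 2 replicates.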

Experiment [2] deals with SW48 cells. Nature of the experiment: Proliferation assay SW48 (CellTiterGlo). It counts as cell-based. The conditions noted are these: Homo sapiens, SW48, 96 h, SW48 colon carcinoma cells, 96 hours, CellTiterGlo; geometric mean of at least 2; read-out: Proliferation Assay SW48 GI50. The method, boiled down:
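Read-out is CellTiterGlo luminescence after 96 hours of compound exposure, with % growth calculated against day-0 and vehicle-treated ATP levels. SW48 seeded at 2,000 cells/well, dosed next day with eight 3-fold serial dilutions, 0.1% DMSO. GI50 reported as geometric mean, at least 2 replicates.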
For orientation: In ATP-based viability assays light output follows the ATP content of the culture.

For experiment [3], the system named is DLD1-WRN-KO cells. Nature of the experiment: Proliferation assay DLD1-WRN-KO (CellTiterGlo, off-target effects). The experiment is classed as cell-based. Conditions: 96 hours, geometric mean of at least 2. The method, boiled down:
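DLD1 cells with CRISPR knockout of WRN were exposed overnight-seeded to eight 3-fold compound dilutions (0.1% DMSO) for 96 h at 37 °C. Viability was read as ATP by CellTiterGlo luminescence against a day-0 plate, giving GI50 and residual viability at top concentration.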

A value given as a limit tells only on which side of the number the result lay.

T1 sequence (Q14191 517-1238): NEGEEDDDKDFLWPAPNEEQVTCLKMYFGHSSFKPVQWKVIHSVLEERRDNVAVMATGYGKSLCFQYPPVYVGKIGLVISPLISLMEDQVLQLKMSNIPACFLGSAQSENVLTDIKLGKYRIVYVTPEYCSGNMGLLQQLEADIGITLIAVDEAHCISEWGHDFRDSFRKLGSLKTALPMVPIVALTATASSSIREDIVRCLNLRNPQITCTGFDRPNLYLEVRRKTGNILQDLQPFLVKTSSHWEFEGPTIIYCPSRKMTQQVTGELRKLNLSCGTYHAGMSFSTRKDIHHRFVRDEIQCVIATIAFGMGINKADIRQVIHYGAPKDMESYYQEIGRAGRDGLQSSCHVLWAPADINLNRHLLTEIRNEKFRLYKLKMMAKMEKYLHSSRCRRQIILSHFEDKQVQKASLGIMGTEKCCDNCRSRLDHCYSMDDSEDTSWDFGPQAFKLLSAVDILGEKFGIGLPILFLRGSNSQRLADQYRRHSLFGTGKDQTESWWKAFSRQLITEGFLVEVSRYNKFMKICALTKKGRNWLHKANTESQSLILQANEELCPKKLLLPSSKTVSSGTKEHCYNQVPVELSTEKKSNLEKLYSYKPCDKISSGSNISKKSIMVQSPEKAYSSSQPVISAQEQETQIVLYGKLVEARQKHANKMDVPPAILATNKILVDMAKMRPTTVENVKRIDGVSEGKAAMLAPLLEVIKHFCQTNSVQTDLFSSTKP

Compound `Cc1c(C2CCN(C(=O)c3c(F)ccc(F)c3O)CC2)c(=O)n2nc(C3=CCCCO3)nc2n1CC(=O)Nc1ccc(C(F)(F)F)cc1` [Example 137, 2-(6-(1-(3,6-difluoro-2-hydroxybenzoyl)piperidin-4-yl)-2-(3,4-dihydro-2H-pyran-6-yl)-5-methyl-7-oxo-[1,2,4]triazolo[1,5-a]pyrimidin-4(7H)-yl)-N-(4-(trifluoromethyl)phenyl) acetamide] registered an IC50 in experiment [1] of 50 nM. Besides, the GI50 in experiment [2] is 300 nM; in experiment [3] it was greater than 10000 nM.
In the same order, the values of `CCc1c(C2CCN(C(C)=O)CC2)c(=O)n2nc(C3=CCCCO3)nc2n1CC(=O)Nc1ccc(C(F)(F)F)cc1` [Example 138, 2-(6-(1-acetylpiperidin-4-yl)-2-(3,4-dihydro-2H-pyran-6-yl)-5-ethyl-7-oxo-[1,2,4]triazolo[1,5-a]pyrimidin-4(7H)-yl)-N-(4-(trifluoromethyl)phenyl)acetamide] are 80 nM, 1000 nM and greater than 10000 nM.
As for `CCc1c(C2CCN(C(C)=O)CC2)c(=O)n2nc(C3=CCC(OC)CC3)nc2n1CC(=O)Nc1ccc(C(F)(F)F)cc1` (stereo not drawn) [Example 139, 2-(6-(1-acetylpiperidin-4-yl)-5-ethyl-2-(4-methoxycyclohex-1-en-1-yl)-7-oxo-[1,2,4]triazolo[1,5-a]pyrimidin-4(7H)-yl)-N-(4-(trifluoromethyl)phenyl)acetamide], the IC50 in experiment [1] is 100 nM. Also, the values for the GI50 in experiment [2] and in experiment [3] were 1000 nM and greater than 10000 nM, respectively.
The corresponding values for `CCc1c(C2=CCN(C(C)=O)CC2)c(=O)n2nc(C3=CCC(OC)CC3)nc2n1CC(=O)Nc1ccc(C(F)(F)F)cc1` (stereo not drawn) [Example 140, 2-(6-(1-acetyl-1,2,3,6-tetrahydropyridin-4-yl)-5-ethyl-2-(4-methoxycyclohex-1-en-1-yl)-7-oxo-[1,2,4]triazolo[1,5-a]pyrimidin-4(7H)-yl)-N-(4-(trifluoromethyl)phenyl)acetamide] are 100 nM, 4000 nM and greater than 10000 nM.
Take `CC(=O)N1CCC(c2c(C)n(CC(=O)Nc3ccc(C(F)(F)F)cc3)c3nc(C4=CCOCC4)nn3c2=O)CC1` [Example 141, 2-(6-(1-acetylpiperidin-4-yl)-2-(3,6-dihydro-2H-pyran-4-yl)-5-methyl-7-oxo-[1,2,4]triazolo[1,5-a]pyrimidin-4(7H)-yl)-N-(4-(trifluoromethyl)phenyl)acetamide]: the IC50 in experiment [1] was 400 nM. Further, the GI50 was 8000 nM in experiment [2] and greater than 10000 nM in experiment [3].
Turning to `CCc1c(C2=CCN(C(C)=O)CC2)c(=O)n2nc(C3=CCCCO3)nc2n1CC(=O)Nc1ccc(C(F)(F)F)cc1` [Example 142, 2-(6-(1-acetyl-1,2,3,6-tetrahydropyridin-4-yl)-2-(3,4-dihydro-2H-pyran-6-yl)-5-ethyl-7-oxo-[1,2,4]triazolo[1,5-a]pyrimidin-4(7H)-yl)-N-(4-(trifluoromethyl)phenyl)acetamide], half-maximal inhibition in experiment [1] (IC50) required 600 nM. Further, the figures for the GI50 in experiment [2] and in experiment [3] were 5000 nM and greater than 10000 nM, respectively.
As to `Cc1c(C2CCN(C(=O)c3ccc(F)c(F)c3O)CC2)c(=O)n2nc(N3CCOCC3)nc2n1CC(=O)Nc1ccc(C(F)(F)F)cc1` [Example 146, 2-(6-(1-(3,4-difluoro-2-hydroxybenzoyl)piperidin-4-yl)-5-methyl-2-morpholino-7-oxo-[1,2,4]triazolo[1,5-a]pyrimidin-4(7H)-yl)-N-(4-(trifluoromethyl)phenyl)acetamide], inhibition in experiment [1] was half-maximal at 90 nM (IC50). Moreover, the GI50 is 4000 nM in experiment [2] and greater than 10000 nM in experiment [3].
On to `CC(=O)N1CCN(c2c(C3CC3)n(CC(=O)Nc3ccc(C(F)(F)F)cc3)c3nc(C4=CCOCC4)nn3c2=O)CC1` [Example 147, 2-(6-(4-acetylpiperazin-1-yl)-5-cyclopropyl-2-(3,6-dihydro-2H-pyran-4-yl)-7-oxo-[1,2,4]triazolo[1,5-a]pyrimidin-4(7H)-yl)-N-(4-(trifluoromethyl)phenyl)acetamide], for which the IC50 in experiment [1] was 600 nM. In addition, the GI50 was 6000 nM in experiment [2] and greater than 10000 nM in experiment [3].
With `Cc1c(N2CCN(C(=O)c3c(F)ccc(F)c3O)C(C)C2)c(=O)n2nc(C3=CCOCC3)nc2n1CC(=O)Nc1ccc(C(F)(F)F)cc1` (stereo not drawn) [Example 148, 2-(6-(4-(3,6-difluoro-2-hydroxybenzoyl)-3-methylpiperazin-1-yl)-2-(3,6-dihydro-2H-pyran-4-yl)-5-methyl-7-oxo-[1,2,4]triazolo[1,5-a]pyrimidin-4(7H)-yl)-N-(4-(trifluoromethyl)phenyl)acetamide], the IC50 in experiment [1] came to 60 nM. The GI50 in experiment [2] is 300 nM; in experiment [3], greater than 10000 nM.
On to `Cc1c(N2CCN(C(=O)c3c(O)cccc3Cl)CC2)c(=O)n2nc(C3=CCOCC3)nc2n1CC(=O)Nc1ccc(C(F)(F)F)cc1` [Example 149, 2-(6-(4-(2-chloro-6-hydroxybenzoyl)piperazin-1-yl)-2-(3,6-dihydro-2H-pyran-4-yl)-5-methyl-7-oxo-[1,2,4]triazolo[1,5-a]pyrimidin-4(7H)-yl)-N-(4-(trifluoromethyl)phenyl)acetamide], for which, in experiment [1], the IC50 is 90 nM. In addition, the GI50 in experiment [2] was 2000 nM; in experiment [3], greater than 10000 nM.
In the same order, the values of `Cc1c(N2CCN(C(=O)c3ccc(F)c(F)c3O)CC2)c(=O)n2nc(N3CCOCC3)nc2n1CC(=O)Nc1ccc(C(F)(F)F)cc1` [Example 150, 2-(6-(4-(3,4-difluoro-2-hydroxybenzoyl)piperazin-1-yl)-5-methyl-2-morpholino-7-oxo-[1,2,4]triazolo[1,5-a]pyrimidin-4(7H)-yl)-N-(4-(trifluoromethyl)phenyl)acetamide] are 90 nM, 2000 nM and greater than 10000 nM.
The corresponding values for `Cc1c(N2CCN(C(=O)c3cnccc3O)CC2)c(=O)n2nc(N3CCOCC3)nc2n1CC(=O)Nc1ccc(C(F)(F)F)cc1` [Example 152, 2-(5-methyl-2-morpholino-7-oxo-6-(4-(4-oxo-1,4-dihydropyridine-3-carbonyl)piperazin-1-yl)-[1,2,4]triazolo[1,5-a]pyrimidin-4(7H)-yl)-N-(4-(trifluoromethyl)phenyl)acetamide] are 500 nM, greater than 10000 nM and greater than 10000 nM.
Consider `COc1cccc(C(=O)N2CCN(c3c(C)n(CC(=O)Nc4ccc(C(F)(F)F)cc4)c4nc(C5=CCOCC5)nn4c3=O)CC2)c1N` [Example 155, 2-(6-(4-(2-amino-3-methoxybenzoyl)piperazin-1-yl)-2-(3,6-dihydro-2H-pyran-4-yl)-5-methyl-7-oxo-[1,2,4]triazolo[1,5-a]pyrimidin-4(7H)-yl)-N-(4-(trifluoromethyl)phenyl)acetamide], for which the IC50 in experiment [1] was 100 nM. Also, the GI50 in experiment [2] is 2000 nM; in experiment [3] it was greater than 10000 nM.
In the same order, the values of `COC(=O)N1CC=C(c2nc3n(CC(=O)Nc4ccc(S(F)(F)(F)(F)F)cc4)c(C)c(N4CCN(C(C)=O)CC4)c(=O)n3n2)CC1` [Example 156, methyl 4-(6-(4-acetylpiperazin-1-yl)-5-methyl-7-oxo-4-(2-oxo-2-((4-(pentafluoro-16-sulfaneyl)phenyl)amino)ethyl)-4,7-dihydro-[1,2,4]triazolo[1,5-a]pyrimidin-2-yl)-3,6-dihydropyridine-1(2H)-carboxylate] are 200 nM, 3000 nM and greater than 10000 nM.
The corresponding values for `Cc1c(N2CCN(C(=O)c3cc(F)ccc3N)CC2)c(=O)n2nc(C3=CCOCC3)nc2n1CC(=O)Nc1ccc(C(F)(F)F)cc1` [Example 157, 2-(6-(4-(2-amino-5-fluorobenzoyl)piperazin-1-yl)-2-(3,6-dihydro-2H-pyran-4-yl)-5-methyl-7-oxo-[1,2,4]triazolo[1,5-a]pyrimidin-4(7H)-yl)-N-(4-(trifluoromethyl)phenyl)acetamide] are 200 nM, 3000 nM and greater than 10000 nM.
The corresponding values for `CC(=O)N1CCN(c2c(C)n(CC(=O)Nc3ccc(Cl)cc3)c3nc(N4CCN(C(=O)OC(C)(C)C)CC4)nn3c2=O)CC1` [Example 158, tert-butyl 4-(6-(4-acetylpiperazin-1-yl)-4-(2-((4-chlorophenyl)amino)-2-oxoethyl)-5-methyl-7-oxo-4,7-dihydro-[1,2,4]triazolo[1,5-a]pyrimidin-2-yl)piperazine-1-carboxylate] are 300 nM, 3000 nM and 1000 nM.
Take `Cc1nnc(C(=O)N2CCN(c3c(C)n(CC(=O)Nc4ccc(C(F)(F)F)cc4)c4nc(C5=CCOCC5)nn4c3=O)CC2)[nH]1` [Example 159, 2-(2-(3,6-dihydro-2H-pyran-4-yl)-5-methyl-6-(4-(5-methyl-4H-1,2,4-triazole-3-carbonyl)piperazin-1-yl)-7-oxo-[1,2,4]triazolo[1,5-a]pyrimidin-4(7H)-yl)-N-(4-(trifluoromethyl)phenyl)acetamide]: the IC50 in experiment [1] was determined as 600 nM. Further, the GI50 in experiment [2] and in experiment [3] was greater than 10000 nM throughout.

Usually IC50 stands for the concentration at which inhibition is half-maximal. The low end stands for higher potency, the high end for lower potency.
